# PubChem BioAssay (NCI)
#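 Assay format: 96-well plates, 48-hour exposure. TGI denotes the concentration required for complete inhibition of growth.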
# How the values were obtained:
# Test in all cases: NCI-60 cell line screen, 48 h
# SK-MEL-28 melanoma = system: SK-MEL-28 melanoma
# SNB-78 CNS = system: SNB-78 CNS
# UACC-62 melanoma = system: UACC-62 melanoma
# HCT-15 colon = system: HCT-15 colon
# TK-10 renal = system: TK-10 renal
# M19-MEL melanoma = system: M19-MEL melanoma
# NCI-H226 lung = system: NCI-H226 lung
# ACHN renal = system: ACHN renal
# DMS 273 small cell lung = system: DMS 273 small cell lung
# SR leukemia = system: SR leukemia
# CAKI-1 renal = system: CAKI-1 renal
# OVCAR-4 ovarian = system: OVCAR-4 ovarian
# SF-268 CNS = system: SF-268 CNS
# XF 498 CNS = system: XF 498 CNS
# NCI-H522 lung = system: NCI-H522 lung
# 786-0 renal = system: 786-0 renal
# IGROV1 ovarian = system: IGROV1 ovarian
# HL-60(TB) leukemia = system: HL-60(TB) leukemia
# EKVX NSCLC = system: EKVX NSCLC
# HT29 colon = system: HT29 colon
# UO-31 renal = system: UO-31 renal
# SK-MEL-5 melanoma = system: SK-MEL-5 melanoma
# RPMI-8226 leukemia = system: RPMI-8226 leukemia
# SK-MEL-2 melanoma = system: SK-MEL-2 melanoma
# SN12C renal = system: SN12C renal
# OVCAR-5 ovarian = system: OVCAR-5 ovarian
# HCT-116 colon = system: HCT-116 colon
# KM20L2 colon = system: KM20L2 colon
# SW-620 colon = system: SW-620 colon
# LXFL 529 NSCLC = system: LXFL 529 NSCLC
# SF-539 CNS = system: SF-539 CNS
# SNB-75 CNS = system: SNB-75 CNS
# NCI-H460 lung = system: NCI-H460 lung
# COLO 205 colon = system: COLO 205 colon
# OVCAR-8 ovarian = system: OVCAR-8 ovarian
# A498 renal = system: A498 renal
# SNB-19 CNS = system: SNB-19 CNS
# U251 CNS = system: U251 CNS
# LOX IMVI melanoma = system: LOX IMVI melanoma
# MOLT-4 leukemia = system: MOLT-4 leukemia
# UACC-257 melanoma = system: UACC-257 melanoma
# CCRF-CEM leukemia = system: CCRF-CEM leukemia
# A549 NSCLC = system: A549 NSCLC
# SF-295 CNS = system: SF-295 CNS
# HOP-92 NSCLC = system: HOP-92 NSCLC
# RXF 393 renal = system: RXF 393 renal
# K-562 leukemia = system: K-562 leukemia
# SK-OV-3 ovarian = system: SK-OV-3 ovarian
# KM12 colon = system: KM12 colon
# NCI-H23 lung = system: NCI-H23 lung
# DMS 114 small cell lung = system: DMS 114 small cell lung
# MALME-3M melanoma = system: MALME-3M melanoma
# HCC-2998 colon = system: HCC-2998 colon
# M14 melanoma = system: M14 melanoma
# HOP-62 NSCLC = system: HOP-62 NSCLC
# HOP-18 NSCLC = system: HOP-18 NSCLC
# OVCAR-3 ovarian = system: OVCAR-3 ovarian
# DLD-1 colon = system: DLD-1 colon
smiles,measurement,setting,value
CN(C)NC(=O)NC12CC3CC(CC(C3)C1)C2,TGI,SK-MEL-28 melanoma,> 10 µM
same,TGI,SNB-78 CNS,> 100 µM
same,TGI,UACC-62 melanoma,> 100 µM
same,TGI,HCT-15 colon,> 100 µM
same,TGI,TK-10 renal,> 10 µM
same,TGI,M19-MEL melanoma,> 100 µM
same,TGI,NCI-H226 lung,> 100 µM
same,TGI,ACHN renal,> 100 µM
same,TGI,DMS 273 small cell lung,> 100 µM
same,TGI,SR leukemia,> 100 µM
same,TGI,CAKI-1 renal,> 100 µM
same,TGI,OVCAR-4 ovarian,> 100 µM
same,TGI,SF-268 CNS,> 100 µM
same,TGI,XF 498 CNS,> 100 µM
same,TGI,NCI-H522 lung,> 100 µM
same,TGI,786-0 renal,> 100 µM
same,TGI,IGROV1 ovarian,> 100 µM
same,TGI,HL-60(TB) leukemia,> 100 µM
same,TGI,EKVX NSCLC,> 100 µM
same,TGI,HT29 colon,> 100 µM
same,TGI,UO-31 renal,> 100 µM
same,TGI,SK-MEL-5 melanoma,> 100 µM
same,TGI,RPMI-8226 leukemia,> 100 µM
same,TGI,SK-MEL-2 melanoma,> 100 µM
same,TGI,SN12C renal,> 100 µM
same,TGI,OVCAR-5 ovarian,> 100 µM
same,TGI,HCT-116 colon,> 100 µM
same,TGI,KM20L2 colon,> 100 µM
same,TGI,SW-620 colon,> 100 µM
same,TGI,LXFL 529 NSCLC,> 100 µM
same,TGI,SF-539 CNS,> 100 µM
same,TGI,SNB-75 CNS,> 100 µM
same,TGI,NCI-H460 lung,> 100 µM
same,TGI,COLO 205 colon,> 100 µM
same,TGI,OVCAR-8 ovarian,> 100 µM
same,TGI,A498 renal,> 100 µM
same,TGI,SNB-19 CNS,> 100 µM
same,TGI,U251 CNS,> 100 µM
same,TGI,LOX IMVI melanoma,> 100 µM
same,TGI,MOLT-4 leukemia,> 100 µM
same,TGI,UACC-257 melanoma,> 100 µM
same,TGI,CCRF-CEM leukemia,> 100 µM
same,TGI,A549 NSCLC,> 100 µM
same,TGI,SF-295 CNS,> 100 µM
same,TGI,HOP-92 NSCLC,> 100 µM
same,TGI,RXF 393 renal,> 10 µM
same,TGI,K-562 leukemia,> 100 µM
same,TGI,SK-OV-3 ovarian,> 100 µM
same,TGI,KM12 colon,> 100 µM
same,TGI,NCI-H23 lung,> 100 µM
CC1=Nc2ccccc2S/C1=C1/C=NC(=NC#N)N=C1C(=O)Nc1cccc(Cl)c1,TGI,SK-MEL-28 melanoma,> 100 µM
same,TGI,SNB-78 CNS,> 100 µM
same,TGI,UACC-62 melanoma,> 100 µM
same,TGI,HCT-15 colon,> 100 µM
same,TGI,TK-10 renal,> 100 µM
same,TGI,M19-MEL melanoma,> 100 µM
same,TGI,NCI-H226 lung,> 100 µM
same,TGI,ACHN renal,> 100 µM
same,TGI,DMS 273 small cell lung,> 100 µM
same,TGI,SR leukemia,> 100 µM
same,TGI,CAKI-1 renal,> 100 µM
same,TGI,OVCAR-4 ovarian,> 100 µM
same,TGI,SF-268 CNS,> 100 µM
same,TGI,NCI-H522 lung,> 100 µM
same,TGI,786-0 renal,> 100 µM
same,TGI,IGROV1 ovarian,> 100 µM
same,TGI,DMS 114 small cell lung,> 100 µM
same,TGI,EKVX NSCLC,> 100 µM
same,TGI,HT29 colon,> 100 µM
same,TGI,UO-31 renal,> 100 µM
same,TGI,SK-MEL-5 melanoma,> 100 µM
same,TGI,RPMI-8226 leukemia,> 100 µM
same,TGI,SK-MEL-2 melanoma,> 100 µM
same,TGI,MALME-3M melanoma,> 100 µM
same,TGI,SN12C renal,> 100 µM
same,TGI,OVCAR-5 ovarian,> 100 µM
same,TGI,HCT-116 colon,> 100 µM
same,TGI,HCC-2998 colon,> 100 µM
same,TGI,KM20L2 colon,> 100 µM
same,TGI,SW-620 colon,> 100 µM
same,TGI,M14 melanoma,> 100 µM
same,TGI,LXFL 529 NSCLC,> 100 µM
same,TGI,SF-539 CNS,> 100 µM
same,TGI,HOP-62 NSCLC,> 100 µM
same,TGI,SNB-75 CNS,> 100 µM
same,TGI,NCI-H460 lung,> 100 µM
same,TGI,COLO 205 colon,> 100 µM
same,TGI,OVCAR-8 ovarian,> 100 µM
same,TGI,A498 renal,> 100 µM
same,TGI,SNB-19 CNS,> 100 µM
same,TGI,HOP-18 NSCLC,> 100 µM
same,TGI,U251 CNS,> 100 µM
same,TGI,LOX IMVI melanoma,> 100 µM
same,TGI,MOLT-4 leukemia,> 100 µM
same,TGI,UACC-257 melanoma,> 100 µM
same,TGI,CCRF-CEM leukemia,> 100 µM
same,TGI,A549 NSCLC,> 100 µM
same,TGI,SF-295 CNS,> 100 µM
same,TGI,OVCAR-3 ovarian,> 100 µM
same,TGI,RXF 393 renal,> 100 µM
same,TGI,K-562 leukemia,> 100 µM
same,TGI,DLD-1 colon,> 100 µM
same,TGI,SK-OV-3 ovarian,> 100 µM
same,TGI,KM12 colon,> 100 µM
same,TGI,NCI-H23 lung,> 100 µM
